According to US20240270762A1, “PENICILLIN-BINDING PROTEIN INHIBITORS” (priority 2021, published 2024):
In brackets after ≈: the same amount, converted by molar mass.

How the values were obtained:
N. gonorrhoeae WHO G = experiment: Liquid broth MIC in Fastidious broth; conditions: Neisseria gonorrhoeae, read-out: Minimum Inhibitory Concentration (MIC), N. gonorrhoeae WHO G
E. coli AG100 = experiment: microbe, parasite or virus in culture; assay type: cell-based; conditions: Escherichia coli, AG100, read-out: MIC E. coli AG100
E. coli AG100A = experiment: Broth microdilution MIC in CAMHB; assay type: cell-based; conditions: Escherichia coli, read-out: MIC E. coli AG100A
E. coli D22 = experiment: microbe, parasite or virus in culture; assay type: cell-based; conditions: Escherichia coli, D22, read-out: MIC E. coli D22
[1] = biological target: T1, PBP3 from Escherichia coli (K-12) (Escherichia coli, UniProt P0AD68); experiment: Bocillin-FL fluorescence polarization competition binding, E. coli PBP3
T1 construct: made in house
Summary of the method: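 Purified PBPs pre-incubated with inhibitor (E. coli PBP3 1.5 μM, 30 min; P. aeruginosa PBP3 0.75 μM, A. baumannii PBP1a 1 μM and PBP3 0.2 μM, 15 min), then Bocillin-FL 0.1 μM (0.05 μM for PBP1a) added; FP read up to 60 min. EC50 = concentration halving bound Bocillin-FL.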

K. pneumoniae UMM = experiment: microbe, parasite or virus in culture; assay type: cell-based; conditions: Klebsiella pneumoniae, read-out: MIC K. pneumoniae UMM
P. aeruginosa ATCC 35151 = experiment: microbe, parasite or virus in culture; assay type: cell-based; conditions: Pseudomonas aeruginosa, ATCC35151, read-out: MIC P. aeruginosa ATCC 35151
N. gonorrhoeae WHO M = experiment: Liquid broth MIC in Fastidious broth; conditions: Neisseria gonorrhoeae, read-out: Minimum Inhibitory Concentration (MIC), N. gonorrhoeae WHO M
N. gonorrhoeae WHO X = experiment: Liquid broth MIC in Fastidious broth; conditions: Neisseria gonorrhoeae, read-out: Minimum Inhibitory Concentration (MIC), N. gonorrhoeae WHO X
N. gonorrhoeae WHO L = experiment: Liquid broth MIC in Fastidious broth; conditions: Neisseria gonorrhoeae, read-out: Minimum Inhibitory Concentration (MIC), N. gonorrhoeae WHO L
E. coli 901C = experiment: microbe, parasite or virus in culture; assay type: cell-based; conditions: Escherichia coli, read-out: MIC E. coli 901C
K. pneumoniae 848844 = experiment: microbe, parasite or virus in culture; assay type: cell-based; conditions: Klebsiella pneumoniae, 848844, read-out: MIC K. pneumoniae 848844
N. gonorrhoeae MS11 = experiment: Liquid broth MIC in Fastidious broth; conditions: Neisseria gonorrhoeae, MS11, read-out: Minimum Inhibitory Concentration (MIC), N. gonorrhoeae MS11
[2] = tested on: N. gonorrhoeae ATCC 49226; experiment: Liquid broth MIC in Fastidious broth; conditions: Neisseria gonorrhoeae, ATCC49226, read-out: Minimum Inhibitory Concentration (MIC), N. gonorrhoeae ATCC 49226
Protocol: Additional antibacterial testing of the series was performed in 8 reference strains of N. gonorrhoeae (ATCC 49226, FA1090, MS 11, WHO G, WHO L, WHO M, WHO K, WHO X, WHO Z, WHO Q, CDC-0197). ATCC 49226, FA1090, MS11, WHO G, WHO L, and WHO M produce wild type or wild-type like PBP2. WHO K, WHO X, WHO Z, WHO Q, and CDC-0197 produce mosaic PBP2. Liquid broth-based assays were used for antibacterial testing of PBP inhibitors in Neisseria gonorrhoeae. Briefly, cryo-preserved bacterial cultures of clinical strains were streaked for isolation on Chocolate Agar (72 g/L (2×) GC Agar Base (BD #228950) and 2% (2×) Hemoglobin was autoclaved at 121° C. for 20 minutes to sterilize. Once cooled to ˜50° C. the 2×GC Agar Base and 2× Hemoglobin solutions are combined and 1% IsoVitaleX Enrichment (BD #211876) was added to the solution). Strains were incubated at 36° C. and 5% CO2 to allow growth of colonies, 24 hours before inoculum preparation. 2-fold serial dilutions of test compounds were conducted in a 96 well plate with a final volume of 75 μL per well at 2-fold the final desired concentration in Fastidious broth (Remel #R07664). For preparation of assay inoculum, a direct suspension was prepared by aseptically swabbing 10-15 colonies from agar plates into culture tubes containing 2 mL of fresh sterile saline. After the dilution plates were set up, direct suspensions were then diluted in a cuvette containing sterile saline and the optical density was measured at 600 nm. Inocula were diluted such that 75 μL of this culture in Fastidious broth results in a starting bacterial concentration of 5×10^5 CFU/mL when added to the dilution plates. The plates were incubated for ˜24 hours at 36° C. and 5% CO2.

T1 sequence (P0AD68 1-577): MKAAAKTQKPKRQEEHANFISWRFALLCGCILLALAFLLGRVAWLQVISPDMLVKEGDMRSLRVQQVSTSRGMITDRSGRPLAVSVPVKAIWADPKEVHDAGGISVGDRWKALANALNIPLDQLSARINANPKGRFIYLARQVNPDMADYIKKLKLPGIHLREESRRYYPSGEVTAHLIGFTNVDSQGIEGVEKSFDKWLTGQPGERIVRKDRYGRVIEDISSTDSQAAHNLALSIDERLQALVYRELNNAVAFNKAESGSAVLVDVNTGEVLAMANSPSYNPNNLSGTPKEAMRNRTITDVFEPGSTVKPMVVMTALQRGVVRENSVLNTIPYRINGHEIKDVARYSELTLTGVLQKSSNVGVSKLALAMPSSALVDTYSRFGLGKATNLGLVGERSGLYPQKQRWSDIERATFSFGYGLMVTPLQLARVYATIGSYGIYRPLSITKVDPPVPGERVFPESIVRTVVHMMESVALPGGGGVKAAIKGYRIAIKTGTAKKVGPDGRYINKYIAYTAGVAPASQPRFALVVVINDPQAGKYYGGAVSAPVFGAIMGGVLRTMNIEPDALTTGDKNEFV

| Compound | MIC (N. gonorrhoeae WHO G) [mg/L] | MIC (E. coli AG100) [mg/L] | MIC (E. coli AG100A) [mg/L] | MIC (E. coli D22) [mg/L] | EC50 [1] [µM] | MIC (K. pneumoniae UMM) [mg/L] | MIC (P. aeruginosa ATCC 35151) [mg/L] | MIC (N. gonorrhoeae WHO M) [mg/L] | MIC (N. gonorrhoeae WHO X) [mg/L] | MIC (N. gonorrhoeae WHO L) [mg/L] | MIC (E. coli 901C) [mg/L] | MIC (K. pneumoniae 848844) [mg/L] | MIC (N. gonorrhoeae MS11) [mg/L] | MIC [2] [mg/L] |
| --- | --- | --- | --- | --- | --- | --- | --- | --- | --- | --- | --- | --- | --- | --- |
| O=C(O)c1cccc2c1OB(O)[C@@H](NC(=O)[C@H](NC(=O)c1cnc3sccn3c1=O)c1ccc(P(=O)(O)O)cc1)C2 (single isomer, unassigned) [Example 195] | 1 to 2 (≈ 1.67 to 3.34 µM) | > 128 | > 128 | 8 to 16 (≈ 13.4 to 26.7 µM) | < 10 | > 128 | < 1 | 1 to 2 (≈ 1.67 to 3.34 µM) | 16 to 32 (≈ 26.7 to 53.5 µM) | 16 to 32 (≈ 26.7 to 53.5 µM) | 2 to 4 (≈ 3.34 to 6.69 µM) | > 128 | 4 to 8 (≈ 6.69 to 13.4 µM) | 4 to 8 (≈ 6.69 to 13.4 µM) |
| CCN1CCN(C(=O)N[C@@H](C(=O)N[C@H]2Cc3cccc(C(=O)O)c3OB2O)c2ccc(P(C)(=O)O)cc2)C(=O)C1=O (single isomer, unassigned) [Example 47] | < 1 | 8 to 16 (≈ 13.6 to 27.3 µM) | 8 to 16 (≈ 13.6 to 27.3 µM) | 2 to 4 (≈ 3.41 to 6.82 µM) | < 10 | > 128 | < 1 | < 1 | 4 to 8 (≈ 6.82 to 13.6 µM) | 4 to 8 (≈ 6.82 to 13.6 µM) | < 1 | > 128 | < 1 | < 1 |
| CCN1CCN(C(=O)NC(C(=O)N[C@H]2Cc3cccc(C(=O)O)c3OB2O)c2ccc(CP(=O)(O)O)cc2)C(=O)C1=O (stereo partly drawn) [Example 20, (3R)-3-(2-(4-ethyl-2,3-dioxopiperazine-1-carboxamido)-2-(4-(phosphonomethyl)phenyl)acetamido)-2-hydroxy-3,4-dihydro-2H-benzo[e][1,2]oxaborinine-8-carboxylic acid] | < 1 | 8 to 16 (≈ 13.3 to 26.6 µM) | 8 to 16 (≈ 13.3 to 26.6 µM) | 2 to 4 (≈ 3.32 to 6.64 µM) | < 10 | 32 to 64 (≈ 53.1 to 106 µM) | < 1 | < 1 | 1 to 2 (≈ 1.66 to 3.32 µM) | 1 to 2 (≈ 1.66 to 3.32 µM) | < 1 | > 128 | < 1 | < 1 |
| O=C(O)c1cccc2c1OB(O)[C@@H](NC(=O)[C@H](NC(=O)N1CCNC1=O)c1ccc(P(=O)(O)O)cc1)C2 [Example 40, (R)-2-hydroxy-3-((R)-2-(2-oxoimidazolidine-1-carboxamido)-2-(4-phosphonophenyl)acetamido)-3,4-dihydro-2H-benzo[e][1,2]oxaborinine-8-carboxylic acid] | < 1 | 32 to 64 (≈ 60.1 to 120 µM) | 8 to 16 (≈ 15 to 30.1 µM) | 2 to 4 (≈ 3.76 to 7.52 µM) | < 10 | 32 to 64 (≈ 60.1 to 120 µM) | < 1 | < 1 | 1 to 2 (≈ 1.88 to 3.76 µM) | 1 to 2 (≈ 1.88 to 3.76 µM) | < 1 | > 128 | < 1 | < 1 |
| O=C(O)c1cccc2c1OB(O)[C@@H](NC(=O)[C@@H](NC(=O)N1CCCCC1=O)c1ccc(P(=O)(O)O)cc1)C2 [Example 36, (R)-2-hydroxy-3-((S)-2-(2-oxopiperidine-1-carboxamido)-2-(4-phosphonophenyl)acetamido)-3,4-dihydro-2H-benzo[39e][1,2]oxaborinine-8-carboxylic acid] | 4 to 8 (≈ 7.34 to 14.7 µM) | > 128 | > 128 | 32 to 64 (≈ 58.7 to 117 µM) | 50 to 250 | > 128 | 8 to 16 (≈ 14.7 to 29.3 µM) | 1 to 2 (≈ 1.83 to 3.67 µM) | 16 to 32 (≈ 29.3 to 58.7 µM) | 16 to 32 (≈ 29.3 to 58.7 µM) | 8 to 16 (≈ 14.7 to 29.3 µM) | > 128 | 16 to 32 (≈ 29.3 to 58.7 µM) | 16 to 32 (≈ 29.3 to 58.7 µM) |
| CS(=O)(=O)N1CCN(C(=O)N[C@@H](C(=O)N[C@H]2Cc3cccc(C(=O)O)c3OB2O)c2cc(F)c(P(=O)(O)O)c(F)c2)C1=O (single isomer, unassigned) [Example 18] | < 1 | 32 to 64 (≈ 49.5 to 99 µM) | 8 to 16 (≈ 12.4 to 24.8 µM) | 8 to 16 (≈ 12.4 to 24.8 µM) | < 10 | 32 to 64 (≈ 49.5 to 99 µM) | 2 to 4 (≈ 3.09 to 6.19 µM) | < 1 | < 1 | < 1 | < 1 | > 128 | < 1 | < 1 |
